In patent US6133292A, “Diaryl-5-alkyl-5-methyl-2-(5H)-furanones as selective cyclooxygenase-2-inhibitors” (Merck Frosst Canada & Co., priority 1998, dated 2000):

Experiments:
[1] = biological target: COX-1 (Homo sapiens, UniProt P23219); test: Assay of COX-1 activity from U937 cell microsomes; assay type: biochemical; set-up: Assay of COX-1 Activity from U937 cell microsomes; endogenous in cells; host or cells: U937 cells, 100,000 x g microsomal fraction; settings: read-out: U937 Cox-1 (IC50, inhibition of PGE2 production)
Sequence of COX-1 (P23219 24-599): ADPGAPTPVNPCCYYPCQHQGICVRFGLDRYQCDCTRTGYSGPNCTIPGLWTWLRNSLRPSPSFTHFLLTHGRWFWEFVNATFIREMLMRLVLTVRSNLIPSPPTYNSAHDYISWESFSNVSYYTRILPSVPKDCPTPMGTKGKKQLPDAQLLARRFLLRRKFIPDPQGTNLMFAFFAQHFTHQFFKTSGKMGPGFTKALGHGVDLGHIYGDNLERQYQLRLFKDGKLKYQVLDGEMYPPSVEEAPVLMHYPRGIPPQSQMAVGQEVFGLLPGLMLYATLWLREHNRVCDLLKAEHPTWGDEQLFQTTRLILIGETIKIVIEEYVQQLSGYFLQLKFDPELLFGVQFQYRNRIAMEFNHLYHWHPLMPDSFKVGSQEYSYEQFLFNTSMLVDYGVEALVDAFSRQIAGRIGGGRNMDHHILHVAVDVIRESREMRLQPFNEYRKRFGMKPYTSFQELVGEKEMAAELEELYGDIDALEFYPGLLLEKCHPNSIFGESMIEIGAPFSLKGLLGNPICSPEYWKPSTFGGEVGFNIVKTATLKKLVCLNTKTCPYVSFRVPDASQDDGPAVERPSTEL
Protocol: Assay of COX-1 Activity from U937 cell microsomes
U 937 cells are pelleted by centrifugation at 500 x g for 5 min and washed once with phosphate-buffered saline and repelleted. Cells are resuspended in homogenization buffer consisting of 0.1 M Tris-HCl, pH 7.4, 10 mM EDTA, 2 μg/ml leupeptin, 2 μg/ml soybean trypsin inhibitor, 2 μg/ml aprotinin and 1 mM phenyl methyl sulfonyl fluoride. The cell suspension is sonicated 4 times for 10 sec and is centrifuged at 10,000 x g for 10 min at 4° C. The supernatant is centrifuged at 100,000 x g for 1 hr at 4° C. The 100,000 x g microsomal pellet is resuspended in 0.1 M Tris-HCl, pH 7.4, 10 mM EDTA to approximately 7 mg protein/mil and stored at -80° C.
Microsomal preparations are thawed immediately prior to use, subjected to a brief sonication, and then diluted to a protein concentration of 125 μg/ml in 0.1 M Tris-HCl buffer, pH 7.4 containing 10 mM EDTA, 0.5 mM phenol, 1 mM reduced glutathione and 1 μM hematin. Assays are performed in duplicate in a final volume of 250 μl. Initially, 5 μl of DMSO vehicle or drug in DMSO are added to 20 μl of 0.1 M Tris-HCl buffer, pH 7.4 containing 10 mM EDTA in wells of a 96-deepwell polypropylene titre plate. 200 μl of the microsomal preparation are then added and pre-incubated for 15 min at room temperature before addition of 25 μl of […] arachidonic acid in […] Tris-HCl and 10 mM EDTA, pH 7.4. Samples are incubated for 40 min at room temperature and the reaction is stopped by the addition of 25 μl of 1 N HCl. Samples are neutralized with 25 μl of 1 N NaOH prior to quantitation of PGE2 content by radioimmunoassay (Dupont-NEN or Amersham assay kits). Cyclooxygenase activity is defined as the difference between PGE2 levels in samples incubated in the presence of arachidonic acid and ethanol vehicle.
(§1) Compounds of the present invention are inhibitors of COX-2 and are thereby useful in the treatment of COX-2 mediated diseases as enumerated above. The activities of the compounds against cyclooxygenase may be seen in the representative results shown below. In the assay, inhibition is determined by measuring the amount of prostaglandin E2 (PGE2) synthesized in the presence of arachidonic acid, COX-1 or COX-2 and a putative inhibitor. The IC50 values represent the concentration of putative inhibitor required to lower PGE2 synthesis to 50% of that obtained as compared to the uninhibited control.

[2] = biological target: T1, COX-2 (Homo sapiens, UniProt P35354); test: Human whole blood assay, COX-2 (LPS-induced PGE2 production); assay type: cell-based; set-up: incubation of human whole blood with LPS, which induces COX-2; from tissue; host or cells: fresh heparinized human whole blood from male and female volunteers, LPS-stimulated; settings: 24 hours at 37° C, read-out: HWB Cox-2 (IC50, inhibition of PGE2 production)
T1 sequence (P35354 18-604): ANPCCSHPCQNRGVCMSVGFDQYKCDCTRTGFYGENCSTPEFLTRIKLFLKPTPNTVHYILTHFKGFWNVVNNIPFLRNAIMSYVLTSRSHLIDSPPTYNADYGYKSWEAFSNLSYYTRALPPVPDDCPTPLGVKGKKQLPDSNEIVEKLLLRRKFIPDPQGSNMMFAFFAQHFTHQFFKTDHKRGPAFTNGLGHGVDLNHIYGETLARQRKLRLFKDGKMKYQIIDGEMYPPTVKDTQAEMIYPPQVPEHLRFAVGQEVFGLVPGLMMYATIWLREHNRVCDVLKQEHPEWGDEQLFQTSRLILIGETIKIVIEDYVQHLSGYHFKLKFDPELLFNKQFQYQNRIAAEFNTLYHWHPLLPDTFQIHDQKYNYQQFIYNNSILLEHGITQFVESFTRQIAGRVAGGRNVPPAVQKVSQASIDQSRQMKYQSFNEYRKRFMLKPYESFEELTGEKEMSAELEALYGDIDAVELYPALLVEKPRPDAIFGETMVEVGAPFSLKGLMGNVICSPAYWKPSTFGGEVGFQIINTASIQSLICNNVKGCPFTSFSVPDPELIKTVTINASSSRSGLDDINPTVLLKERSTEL
Protocol: Human whole blood provides a protein and cell-rich milieu appropriate for the study of biochemical efficacy of anti-inflammatory compounds such as selective COX-2 inhibitors. […] This is consistent with the observation that COX-2 inhibitors have no effect on PGE2 production in normal blood. These inhibitors are active only after incubation of human whole blood with LPS, which induces COX-2. This assay can be used to evaluate the inhibitory effect of selective COX-2 inhibitors on PGE2 production. As well, platelets in whole blood contain a large amount of the COX-1 enzyme. Immediately following blood clotting, platelets are activated through a thrombin-mediated mechanism. This reaction results in the production of thromboxane B2 (TXB2) via activation of COX-1. Thus, the effect of test compounds on TxB2 levels following blood clotting can be examined and used as an index for COX-1 activity. Therefore, the degree of selectivity by the test compound can be determined by measuring the levels of PGE2 after LPS induction (COX-2) and TxB2 following blood clotting (COX-1) in the same assay.
A. COX-2 (LPS-induced PGE9 production)
Fresh blood is collected in heparinized tubes by venipuncture from both male and female volunteers. The subjects have no apparent inflammatory conditions and have not taken any NSAIDs for at least 7 days prior to blood collection. Plasma is immediately obtained from a 2 mL blood aliquot to use as blank (basal levels of PGE2). The remaining blood is incubated with LPS (100 μg/ml final concentration, Sigma Chem, #L-2630 from E. coli; diluted in 0.1% BSA (Phosphate buffered saline) for 5 minutes at room temperature. Five hundred μL aliquots of blood are incubated with either 2 μL of vehicle (DMSO) or 2 μL of a test compound at final concentrations varying from 10 nM to 30 μM for 24 hours at 37° C. At the end of the incubation, the blood is centrifuged at 12,000 x g for 5 minutes to obtain plasma. A 100 μL aliquot of plasma is mixed with 400 μL of methanol for protein precipitation. The supernatant is obtained and is assayed for PGE2 using a radioimmunoassay kit (Amersham, RPA#530) after conversion of PGE2 to its methyl oximate derivative according to the manufacturer's procedure.
as §1

IC50 [1]	IC50 [2]	Structure (SMILES)
6.2 µM	0.13 µM	CC[C@@]1(C)OC(=O)C(c2ccc(F)cc2)=C1c1ccc(S(C)(=O)=O)cc1 [e, (5R)-5-ethyl-3-(4-fluorophenyl)-5-methyl-4-[4-(methylsulfonyl)phenyl]-2,5-dihydro-2-furanone]
> 10 µM	2.51 µM	CCCC1(C)OC(=O)C(c2ccc(F)cc2)=C1c1ccc(S(C)(=O)=O)cc1 (stereo not shown) [n, 3-(4-fluorophenyl)-5-methyl-4-[4-(methylsulfonyl)phenyl]-5-propyl-2,5-dihydro-2-furanone]
24.8 µM	1.55 µM	CC[C@@]1(C)OC(=O)C(c2ccc(F)c(F)c2)=C1c1ccc(S(C)(=O)=O)cc1 [h, (5R)-3-(3,4-difluorophenyl)-5-ethyl-5-methyl-4-[4-(methylsulfonyl)phenyl] -2,5-dihydro-2-furanone]
13.4 µM	0.53 µM	CC[C@]1(C)OC(=O)C(c2ccc(F)c(F)c2)=C1c1ccc(S(C)(=O)=O)cc1 [i, (5S)-3-(3,4-difluorophenyl)-5-ethyl-5-methyl-4-[4-(methylsulfonyl)phenyl] -2,5-dihydro-2-furanone]
> 10 µM	12.2 µM	CCC1(CC)OC(=O)C(c2ccccc2)=C1c1ccc(S(C)(=O)=O)cc1 [t, 5,5-diethyl-4-[4-(methylsulfonyl)phenyl]-3-phenyl-2,5-dihydro-2-furanone, reference compound]
> 10 µM	2.44 µM	CCCC1(C)OC(=O)C(c2ccc(F)c(F)c2)=C1c1ccc(S(C)(=O)=O)cc1 (stereo not shown) [p, 3-(3,4-difluorophenyl)-5-methyl-4-[4-(methylsulfonyl)phenyl]-5-propyl-2,5-dihydro-2-furanone]
7.4 µM	0.59 µM	CCC1(C)OC(=O)C(c2ccc(F)cc2)=C1c1ccc(S(C)(=O)=O)cc1 (stereo not shown) [c, 5-ethyl-3-(4-fluorophenyl)-5-methyl-4-[4-(methylsulfonyl)phenyl]-2,5-dihydro-2-furanone]
> 10 µM	13.9 µM	CCC1(CC)OC(=O)C(c2ccc(F)cc2)=C1c1ccc(S(C)(=O)=O)cc1 [u, 5,5-diethyl-3-(4-fluorophenyl)-4-[4-(methylsulfonyl)phenyl]-2,5-dihydro-2-furanone, reference compound]
3.2 µM	0.31 µM	CC[C@]1(C)OC(=O)C(c2ccc(F)cc2)=C1c1ccc(S(C)(=O)=O)cc1 [d, (5S)-5-ethyl-3-(4-fluorophenyl)-5-methyl-4-[4-(methylsulfonyl)phenyl]-2,5-dihydro-2-furanone]
> 10 µM	3.55 µM	CCCC1(C)OC(=O)C(c2cccc(F)c2)=C1c1ccc(S(C)(=O)=O)cc1 (stereo not shown) [o, 3-(3-fluorophenyl)-5-methyl-4-[4-(methylsulfonyl)phenyl]-5-propyl-2,5-dihydro-2-furanone]
5.8 µM	< 0.37 µM	CC1(C)OC(=O)C(c2ccc(F)cc2)=C1c1ccc(S(C)(=O)=O)cc1 [Compound T3-1, 3-(4-fluorophenyl)-5,5-dimethyl-4-[4-(methylsulfonyl)phenyl]-2,5-dihydro-2-furanone, reference compound]
